Reference: patent publication US20150329498A1, “IRAK INHIBITORS AND USES THEREOF” (Nimbus Iris, Inc., priority 2014, published 2015)

Experiments:
Assay type in all cases: cell-based
[1] = system: TNFα production in human whole blood; test: LPS induced TNFα production in human whole blood; conditions: 1 ug/mL LPS, 20 hours
Protocol: (§1) Compounds of the present invention were also studied in in vitro cytokine production assays. Exemplary protocols follow.
(§2) Human whole blood and hWBC assays: Human whole blood was diluted by combining whole blood with no serum RPMI medium at a ratio of 1:1. 180 ul/well of the diluted whole blood/well was added to a 96 well plate. For WBC assay 100,000 cells/well were seeded in a 96-well plate with a volume of 100 ul/well. To make the compound master plate 9 ul of 30 mM compound solution was added into the wells in the assigned rows, then serial solutions with 4x dilutions were made in DMSO. That is, 9 uL of 100% DMSO were added into each of the rest wells and 3 uL of compound solution was taken from the one-step higher concentration solution and mixed well with the DMSO. An intermediate compound dilution plate was made by mixing 4 uL of the compound solution from the compound master plate with 196 uL of no serum RPMI medium. hWBC or human whole blood was treated for 0.5 hour by adding 20 uL/well of the compound and the control solutions from the intermediate compound plate to the cell plate. 80 uL/well or 20 uL/well of stimulant were then added to the human whole blood or hWBC respectively. […] The supernatants were then collected and cytokine levels were measured with ELISA for TNFα (R&D Systems, #DY210) and IFNα (R&D Systems, #41100-2) per manufacturer's instruction.

[2] = system: TNFα production in human white blood cells (hWBC); test: R848 induced TNFα production in hWBC; conditions: 1 uM R848, 20 hours
Protocol: as §1, §2

[3] = system: TNFα production in THP-1 cells; test: LPS induced TNFα production assay in THP-1 cells; conditions: Homo sapiens, 300 ng/mL LPS, measured at 5 hours
Protocol: Provided compounds were also assayed in an LPS (Lipopolysaccharide) or R848 (TLR-7 agonist) induced cytokine (TNFα and IL8) production assay in THP-1 cells, human white blood cells (hWBC), and human whole blood. The exemplary protocol for this assay in THP-1 cells was as follows below.
THP-1 cells from ATCC (TIB-202) were cultured in RPMI Medium 1640 (Invitrogen, Cat No. A10491-01), 10% fetal bovine serum (Invitrogen, Cat No. 10099141, Lot No. 8172882) containing 100 U/mL Penicillin, 100 μg/mL streptomycin (Invitrogen, Cat No. 15140-122), and 50 uM 2-Mercaptoethanol (Invitrogen, Cat No. 21985023). LPS-EK ultra pure (Invivogen, Cat No. tlrl-peklps) was used to induce IL8 and TNFα production, that was detected in the cell culture supernatant by IL8 HTRF kit (Cisbio, Cat No. 62IL8PEB) and TNFα HTRF kit (Cisbio, Cat No. 62TNFPEB), as per manufacturer instructions. Cells were cultured in 96 well assay plates at 100,000 cells per well, and compounds diluted in final 0.3% DMSO were pre-incubated with cells for 1 hour prior to stimulation with 300 ng/mL LPS. Cytokine production in cell supernatant was measured at 5 hours for TNFα production, and at 16 hours for IL8 production and assessment of cell viability.
The compound numbers correspond to the compound numbers in Table 1. Compounds having an activity designated as “A” provided an IC50≦0.5 μM; compounds having an activity designated as “B” provided an IC50 of 0.5-5.0 μM; compounds having an activity designated as “C” provided an IC50>5.0 μM. “NA” stands for “not assayed.”

[4] = system: TNFα production in human white blood cells (hWBC); test: LPS induced TNFα production in hWBC; conditions: 1 ug/mL LPS, 20 hours
Protocol: as §1, §2

[5] = system: TNFα production in human whole blood; test: R848 induced TNFα production in human whole blood; conditions: 1 uM R848, 20 hours
Protocol: as §1, §2

Row | Structure (SMILES) | IC50 [1] [nM] | IC50 [2] [nM] | IC50 [3] [nM] | IC50 [4] [nM] | IC50 [5] [nM]
1 | N#Cc1ccc2ncnc(N[C@H]3CC[C@H](N4CCOCC4)CC3)c2c1 [Compound I-3, 4-(((1r,4r)-4-morpholinocyclohexyl)amino)quinazoline-6-carbonitrile] | ≤ 250 | ≤ 250 | ≤ 500 | 250 to 1000 | 250 to 1000
2 | N#Cc1ccc2ncnc(N[C@H]3CC[C@H](N4CCC5(CC4)CC5)CC3)c2c1 [Compound I-7, 4-(((1r,4r)-4-(6-azaspiro[2.5]octan-6-yl)cyclohexyl)amino)-quinazoline-6-carbonitrile] | ≤ 250 | ≤ 250 | ≤ 500 | 1000 to 10000 | ≤ 250
